Measured values published in PubChem BioAssay AID330 (DTP/NCI, 2004).
Several values for one entry are separate records, joined by “and”; a condition that tells them apart may be missing. Equal values may be shown once. Inconclusive results and toxic doses are left out. The calls were made as follows: active = survival T/C of 150% or more; inactive = T/C below 125% in these data. Peptide text beside a SMILES is read from it. * marks the point of attachment. Cbz = O=C(OCc1ccccc1)*

Test system: P388 leukemia ip, CD2F1 mice, survival T/C
Assay: NCI In Vivo Anticancer Drug Screen. Data for tumor model P388 Leukemia (intraperitoneal) in CD2F1 (CDF1) mice
Settings: endpoint: median survival time, higher = longer survival
How it was run: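 Mice carrying the transplanted tumor received test compound or vehicle. Survival was recorded in each group, and the value is the treated-group measurement divided by that of the vehicle-treated control group.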

[1] = dose: 60.0 mg/kg/injection, schedule: Q01DX005 (ip), vehicle: saline with Tween-80
[2] = dose: 120.0 mg/kg/injection, schedule: Q01DX005 (ip), vehicle: saline with Tween-80
[3] = dose: 240.0 mg/kg/injection, schedule: Q01DX005 (ip), vehicle: saline with Tween-80
[4] = dose: 100.0 mg/kg/injection, schedule: Q01DX001 (ip), vehicle: Klucel (hydroxypropylcellulose) (HPC)
[5] = dose: 200.0 mg/kg/injection, schedule: Q01DX001 (ip), vehicle: Klucel (hydroxypropylcellulose) (HPC)
[6] = dose: 50.0 mg/kg/injection, schedule: Q01DX009 (ip), vehicle: saline with Tween-80
[7] = dose: 100.0 mg/kg/injection, schedule: Q01DX009 (ip), vehicle: saline with Tween-80
[8] = dose: 200.0 mg/kg/injection, schedule: Q01DX009 (ip), vehicle: saline with Tween-80
[9] = dose: 50.0 mg/kg/injection, schedule: Q01DX009 (ip), vehicle: Klucel (hydroxypropylcellulose) (HPC)
[10] = dose: 100.0 mg/kg/injection, schedule: Q01DX009 (ip), vehicle: Klucel (hydroxypropylcellulose) (HPC)
[11] = dose: 200.0 mg/kg/injection, schedule: Q01DX009 (ip), vehicle: Klucel (hydroxypropylcellulose) (HPC)
[12] = dose: 25.0 mg/kg/injection, schedule: Q01DX005 (ip), vehicle: saline
[13] = dose: 50.0 mg/kg/injection, schedule: Q01DX005 (ip), vehicle: saline
[14] = dose: 100.0 mg/kg/injection, schedule: Q01DX005 (ip), vehicle: saline
[15] = dose: 6.25 mg/kg/injection, schedule: Q01DX009 (ip), vehicle: saline with Tween-80
[16] = dose: 12.5 mg/kg/injection, schedule: Q01DX009 (ip), vehicle: saline with Tween-80

Measured: T/C

O=C(NC(Cc1ccc(F)cc1)C(=O)O)c1ccccc1 (stereo unspecified)
inactive: dose: 25.0 mg/kg/injection, schedule: Q01DX009 (ip), vehicle: other 113 % of control | dose: 50.0 mg/kg/injection, schedule: Q01DX009 (ip), vehicle: other 115 % of control | dose: 100.0 mg/kg/injection, schedule: Q01DX009 (ip), vehicle: other 110 % of control

O=C1CCC(Cc2ccccc2Br)C(=O)N1 (stereo unspecified)
inactive: [1] 99 % of control | [2] 107 % of control | [3] 102 % of control

COc1ccc(CC2c3cc4c(cc3CCN2C)OCO4)c(/C=C\c2ccccc2)c1OC (stereo unspecified)
inactive: dose: 6.25 mg/kg/injection, schedule: Q01DX001 (ip), vehicle: saline + alcohol 92 % of control | dose: 12.5 mg/kg/injection, schedule: Q01DX001 (ip), vehicle: saline + alcohol 93 % of control | dose: 25.0 mg/kg/injection, schedule: Q01DX001 (ip), vehicle: saline + alcohol 90 % of control | dose: 200.0 mg/kg/injection, schedule: Q01DX001 (ip), vehicle: saline + alcohol 87 % of control

CCCCN=Cc1ccccc1
inactive: dose: 100.0 mg/kg/injection, schedule: Q04DX003 (ip), vehicle: saline with Tween-80 100 % of control | dose: 200.0 mg/kg/injection, schedule: Q04DX003 (ip), vehicle: saline with Tween-80 100 % of control

CCOC(=O)NNC(=O)Nc1ccccc1F
inactive: [1] 108 % of control | [2] 96 % of control | [3] 99 % of control

O=C(O)C1OC(N(O)c2ccc(Oc3ccc(Cl)cc3)cc2)C(O)C(O)C1O (stereo unspecified)
inactive: [1] 106 % of control | [2] 100 % of control | [3] 100 % of control

O/N=C(/C=N/O)SCCSC(/C=N/O)=N/O
inactive: dose: 50.0 mg/kg/injection, schedule: Q01DX005 (ip), vehicle: Klucel (hydroxypropylcellulose) (HPC) 110 % of control | dose: 100.0 mg/kg/injection, schedule: Q01DX005 (ip), vehicle: Klucel (hydroxypropylcellulose) (HPC) 109 % of control | dose: 200.0 mg/kg/injection, schedule: Q01DX005 (ip), vehicle: Klucel (hydroxypropylcellulose) (HPC) 112 % of control

Cc1ccc(S(=O)(=O)N/N=C/c2c(-c3ccc(Cl)cc3)nc3n2CCS3)cc1
inactive: [4] 100 % of control | [5] 92 % of control | dose: 400.0 mg/kg/injection, schedule: Q01DX001 (ip), vehicle: Klucel (hydroxypropylcellulose) (HPC) 94 % of control

c1ccc(OCC(COc2ccccc2)(COc2ccccc2)COc2ccccc2)cc1
inactive: dose: 7.5 mg/kg/injection, schedule: Q01DX009 (ip), vehicle: saline with Tween-80 107 % of control | dose: 15.0 mg/kg/injection, schedule: Q01DX009 (ip), vehicle: saline with Tween-80 107 % of control | dose: 30.0 mg/kg/injection, schedule: Q01DX009 (ip), vehicle: saline with Tween-80 104 % of control

CC(=O)OCC1OC(n2nnc(CCl)c2CCl)C(OC(C)=O)C(OC(C)=O)C1OC(C)=O (stereo unspecified)
inactive: [6] 110 % of control | [7] 98 % of control | [8] 117 % of control

COc1ccc2c(c1)-c1nn(CCO)c(-c3ccccn3)c1CC2
inactive: [9] 109 % of control | [10] 106 % of control | [11] 106 % of control

COCc1nnc2c(N)nccn12
inactive: [4] 99 % of control | [5] 93 % of control

CCOC(=O)Nc1nc2ccccc2n1CN1CCN(Cn2c(NC(=O)OCC)nc3ccccc32)CC1
inactive: [12] 108 % of control | [13] 111 % of control | [14] 121 % of control | dose: 200.0 mg/kg/injection, schedule: Q01DX005 (ip), vehicle: saline 122 % of control

CCOC(=O)Nc1cc2c(c(N)n1)N=C(c1ccc(C)cc1C)CN2
inactive: dose: 5.0 mg/kg/injection, schedule: Q01DX005 (ip), vehicle: saline with Tween-80 109 % of control | dose: 10.0 mg/kg/injection, schedule: Q01DX005 (ip), vehicle: saline with Tween-80 115 % of control | dose: 20.0 mg/kg/injection, schedule: Q01DX005 (ip), vehicle: saline with Tween-80 123 % of control

CCCCOC(=O)c1c2nc3c(C(=O)OCCCC)ccc(C)c3oc-2c(C)c(=O)c1NC(C)=O
inactive: dose: 100.0 mg/kg/injection, schedule: Q04DX003 (ip), vehicle: Klucel (hydroxypropylcellulose) (HPC) 87 % of control | dose: 200.0 mg/kg/injection, schedule: Q04DX003 (ip), vehicle: Klucel (hydroxypropylcellulose) (HPC) 90 % of control | dose: 400.0 mg/kg/injection, schedule: Q04DX003 (ip), vehicle: Klucel (hydroxypropylcellulose) (HPC) 89 % of control

Cc1cc[n+](-c2nc3c([O-])n(C)c(=O)n(C)c-3n2)cc1
inactive: dose: 100.0 mg/kg/injection, schedule: Q04DX003 (ip), vehicle: saline 99 % of control | dose: 200.0 mg/kg/injection, schedule: Q04DX003 (ip), vehicle: saline 99 % of control | dose: 400.0 mg/kg/injection, schedule: Q04DX003 (ip), vehicle: saline 94 % of control

Cc1noc(C)c1C(=O)CCCCC(=O)O
inactive: [1] 102 % of control | [2] 95 % of control | [3] 104 % of control

C=CC[N+](CCO)(CCO)CCCCCCCCCCCCCCCCCC
inactive: [15] 114 % of control | [16] 108 % of control

CCCNC(=O)NNC(=O)c1ccc(NC(=O)NCCC)cc1
inactive: [9] 101 % of control | [10] 102 % of control | [11] 89 % of control

COc1cc(C(c2cc3c(cc2O)OCO3)N2CCCCC2)cc(OC)c1OC (stereo unspecified)
inactive: [1] 111 % of control and 118 % of control and 123 % of control | [2] 111 % of control and 118 % of control | [3] 103 % of control | dose: 480.0 mg/kg/injection, schedule: Q01DX005 (ip), vehicle: saline with Tween-80 118 % of control

C=CC[P+](C)(c1ccccc1)c1ccccc1
inactive: dose: 0.78 mg/kg/injection, schedule: Q01DX009 (ip), vehicle: saline 94 % of control | dose: 1.56 mg/kg/injection, schedule: Q01DX009 (ip), vehicle: saline 97 % of control | dose: 3.13 mg/kg/injection, schedule: Q01DX009 (ip), vehicle: saline 106 % of control

CSC(=C[N+](=O)[O-])SC
inactive: dose: 3.13 mg/kg/injection, schedule: Q01DX009 (ip), vehicle: water 100 % of control | dose: 6.25 mg/kg/injection, schedule: Q01DX009 (ip), vehicle: water 105 % of control | dose: 12.5 mg/kg/injection, schedule: Q01DX009 (ip), vehicle: water 96 % of control | dose: 25.0 mg/kg/injection, schedule: Q01DX009 (ip), vehicle: water 104 % of control

O=C(NC(Cc1ccccc1)C(=O)N1CCCC1C(=O)O)OCc1ccccc1 (stereo not drawn) (Cbz-Phe-Pro-OH; configuration not given here)
inactive: dose: 50.0 mg/kg/injection, schedule: Q01DX005 (ip), vehicle: saline with Tween-80 95 % of control | dose: 100.0 mg/kg/injection, schedule: Q01DX005 (ip), vehicle: saline with Tween-80 100 % of control | dose: 200.0 mg/kg/injection, schedule: Q01DX005 (ip), vehicle: saline with Tween-80 97 % of control

CC1CCC2N(C1)CC1C3(O)CC45OC6(O)C(O)CCC4(C)C6CCC5C3(O)CC(O)C1(O)C2(C)O (stereo unspecified)
inactive: dose: 3.12 mg/kg/injection, schedule: Q01DX009 (ip), vehicle: saline with Tween-80 103 % of control | [15] 112 % of control | [16] 98 % of control | [12] 114 % of control | dose: 25.0 mg/kg/injection, schedule: Q01DX009 (ip), vehicle: saline with Tween-80 103 % of control | [13] 109 % of control | [6] 98 % of control | [14] 107 % of control

CCCCCCCOCC(=O)OC
inactive: [6] 109 % of control | [7] 108 % of control | [8] 101 % of control
